Common to all, as to assay: growth of human tumour cells (NCI), 48 h
For assay [1], the system named is KM12 colon.
In assay [2] the test system is RPMI-8226 leukemia.
Assay [3] has as its system MDA-MB-435.
Assay [4] has as its system SF-268 CNS.
Assay [5] concerns SN12C renal.
The subject of assay [6] is SK-MEL-5 melanoma.
The subject of assay [7] is NCI-H226 lung.
In assay [8] the test system is 786-0 renal.
In assay [9] the test system is SK-OV-3 ovarian.
In assay [10] the test system is HS 578T breast.

From PubChem BioAssay (NCI) come the findings set out here.

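96-well plates; 48 h exposure; 5 concentrations. Endpoints by linear interpolation between flanking doses. Not reached: highest tested concentration assigned. TGI: concentration producing complete growth inhibition.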

As for `O=C(O)CS(=O)c1ccc2c3c(cccc13)C(=O)c1ccccc1-2` (stereo not given), the TGI in assay [1], in assay [2], in assay [3], in assay [4], in [5] and in assay [6] was greater than 100 µM in each case. Moreover, the TGI in [7], in assay [8], in assay [9] and in assay [10] was greater than 100 µM in each case.

For the compound `O=c1[nH]nc(-c2ccc([N+](=O)[O-])cc2)n1/N=C/c1ccc([N+](=O)[O-])cc1`, the TGI in assay [1], in assay [2], in assay [3], in assay [4], in assay [5] and in [6] was greater than 100 µM in each case. In addition, the TGI in [7], in assay [8], in assay [9] and in assay [10] was greater than 100 µM throughout.

With `CCOP(=O)(CC1CC(O)(CNc2cc(Cl)nc(N)n2)C1)OCC` (stereo not given), the TGI in assay [1], in [2], in assay [3], in assay [4], in assay [5] and in assay [6] was greater than 100 µM each time. The TGI in [7], in [8], in assay [9] and in [10] was greater than 100 µM each time.

Regarding `CC(C)(C)OC(=O)NC1CCCC1C(O)(C1=CCCC1)C1=CCCC1` (stereo not given), the TGI in assay [1], in assay [2], in assay [3], in assay [4], in assay [5] and in assay [6] was greater than 100 µM each time. Besides, the TGI in assay [7], in assay [8], in [9] and in assay [10] was greater than 100 µM in each case.

In the case of `N#Cc1nc(C(F)(F)F)oc1N`, the TGI in assay [1], in assay [2], in assay [3], in assay [4], in [5] and in assay [6] was greater than 100 µM throughout. Further, the TGI in assay [7], in assay [8], in assay [9] and in assay [10] was greater than 100 µM throughout.

In the case of `O=c1c2ncn(C3CCCCO3)c2n(-c2ccccc2)c(=S)n1-c1ccccc1` (stereo not given), the TGI in assay [1] was greater than 100 µM; in [2] it was greater than 100 µM; in [3], greater than 100 µM; in [4], greater than 92.2 µM; in assay [5] it was greater than 100 µM; in assay [6], greater than 100 µM. For the same compound, the TGI is 86.2 µM in assay [7], greater than 86.2 µM in assay [8], 61 µM in assay [9] and 53.6 µM in [10].

For `COc1ccc(OC)c(C(=O)/C=C/c2cc(O)c(O)cc2F)c1`, the TGI in assay [1] was 13.8 µM; in [2], 7.83 µM; in assay [3], 0.99 µM; in assay [4] it was greater than 44.9 µM; in assay [5], 5.8 µM; in [6], 12.4 µM. Also, the TGI was 15.4 µM in assay [7], 17.6 µM in assay [8], greater than 67.5 µM in assay [9] and greater than 100 µM in [10].

`CCOC(=O)CN=C1Nc2ccccc2C(=O)N2CSCC12` (stereo not given): the TGI in assay [1], in assay [2], in [3], in assay [4], in [5] and in [6] was greater than 100 µM in each case. Also, the TGI in assay [7], in [8], in [9] and in [10] was greater than 100 µM in each case.

As for `c1ccc2c(c1)nc1n2CCNC1`, the TGI in assay [1], in [2], in assay [3], in assay [4], in [5] and in [6] was greater than 100 µM throughout. Moreover, the TGI in assay [7], in assay [8], in assay [9] and in assay [10] was greater than 100 µM throughout.

`Cc1ccc(S(=O)(=O)Nc2nc3ccccc3c(=O)n2C2CCCCC2)cc1`: the TGI in assay [1], in [2], in assay [3], in assay [4], in [5] and in assay [6] was greater than 100 µM throughout. Further, the TGI in [7], in [8], in assay [9] and in assay [10] was greater than 100 µM throughout.

With `COc1ccc(C[C@H]2NC(=O)/C=C/C[C@@H]([C@H](C)[C@H]3O[C@@H]3c3ccccc3)OC(=O)[C@H](CC(C)C)OC(=O)[C@H](C)CNC2=O)cc1`, the TGI in assay [1] is greater than 0.0001 µM; in assay [2], greater than 0.0001 µM; in assay [3], 1.45e-05 µM; in [4], greater than 0.0001 µM; in [5], greater than 0.0001 µM; in [6] it was 7.06e-05 µM. The TGI in [7] is greater than 7.26e-05 µM; in [8], greater than 0.0001 µM; in assay [9], greater than 0.0001 µM; in assay [10], greater than 6.66e-05 µM.
